The values that follow are results of earlier work, collected in patent publication US20200095192A1, “BIODEGRADABLE DIETHANOLAMINE DERIVATIVE CHELATING AGENT AND PREPARATION PROCESS THEREOF” (PTT Global Chemical Public Company Limited, priority 2017, published 2020).

Read-outs that look alike come from different tables or passages of the source.

The conditions of series [1]: barium (Ba^2+); previous disclosed chelating agent; cited from earlier work.
For series [2] the following is noted: magnesium (Mg^2+); previous disclosed chelating agent; cited from earlier work.
For series [3] the following is noted: cadmium (Cd^2+); previous disclosed chelating agent; cited from earlier work.
For series [4] the following is noted: tin (Pb^2+); previous disclosed chelating agent; cited from earlier work.
The conditions of series [5]: calcium (Ca^2+); previous disclosed chelating agent; cited from earlier work.
The conditions of series [6]: mercury (Hg^2+); previous disclosed chelating agent; cited from earlier work.
For series [7] the following is noted: iron (Fe^3+); previous disclosed chelating agent; cited from earlier work.
For series [8] the following is noted: zinc (Zn^2+); previous disclosed chelating agent; cited from earlier work.
For series [9] the following is noted: copper (Cu2+); previous disclosed chelating agent; cited from earlier work.
For series [10] the following is noted: aluminium (Al^3+); previous disclosed chelating agent; cited from earlier work.
The conditions of series [11]: manganese (Mn^2+); previous disclosed chelating agent; cited from earlier work.
The conditions of series [12]: iron (Fe^2+); previous disclosed chelating agent; cited from earlier work.
The conditions of series [13]: strontium (Sr^2+); previous disclosed chelating agent; cited from earlier work.
The conditions of series [14]: cobolt (Co^2+); previous disclosed chelating agent; cited from earlier work.
The conditions of series [15]: nickel (Ni^2+); previous disclosed chelating agent; cited from earlier work.

On to `O=C(O)CC(OCCN(CCOC(CC(=O)O)C(=O)O)[C@@H](CC(=O)O)C(=O)O)C(=O)O` (stereo partly shown) [BCA6], for which the stability constant in series [1] is on record as 6.1; in series [2], 5.98; in [3], 11.09; in series [4], 10.82; in series [5], 7.71; in [6] it was 14.85. In addition, the stability constant was 17.3 in series [7]; 11.34 in series [8]; 13.08 in series [9]; 6.14 in series [10]; 9.28 in series [11].

On to `O=C(O)CN(CCO)CC(=O)O` [EDG, ethanol diglycine], for which the stability constant in series [1] is given as 3.4; in series [2] it was 6.2; in [3] it was 7.4; in series [4], 13.6; in [5] it was 4.7; in [12] it was 13.4. Further, the stability constant is 19.8 in [6]; 21.6 in series [7]; 15.2 in series [8]; 5.2 in series [13]; 8.0 in series [14]; 11.8 in series [9]. For the same compound, the stability constant is recorded as 7.7 in series [10], 18.2 in [15] and 10.0 in series [11].

`O=C(O)CN(CCN(CC(=O)O)CC(=O)O)CC(=O)O` [EDTA, ethylenediamineteraacetic acid]: the stability constant in [1] is 7.9; in [2], 8.8; in [3], 16.5; in series [4] it was 18.0; in series [5], 10.7; in [12], 14.3. In addition, the stability constant in series [6] is given as 21.5; in series [7], 25.1; in [8] it was 16.5; in [13] it was 8.7; in series [14], 16.5; in series [9] it was 18.8. For the same compound, the results for the stability constant in [10], in series [15] and in [11] were 16.4, 18.4 and 13.9, respectively.

For `O=C(O)CC[C@@H](C(=O)O)N(CC(=O)O)CC(=O)O` [GLDA, glutamic acid N,N-diacetic acid], the stability constant is on record as 3.5 in series [1]; 5.2 in series [2]; 9.1 in [3]; 10.5 in series [4]; 5.9 in [5]; 8.7 in series [12]. Moreover, the stability constant is given as 14.3 in [6]; 11.7 in series [7]; 10.0 in series [8]; 4.1 in series [13]; 10.0 in series [14]; 13.1 in series [9]. For the same compound, the values for the stability constant in [10], in series [15] and in series [11] were 12.2, 10.9 and 7.6, respectively.

On to `O=C(O)CC(NC(CC(=O)O)C(=O)O)C(=O)O` (stereo not shown) [IDS, iminodisuccinic acid], for which the stability constant in series [1] is 2.1; in series [2], 6.1; in series [3] it was 8.4; in series [4], 11.0; in series [5], 5.2; in series [12] it was 8.2. The stability constant is reported as 14.9 in [6]; 15.2 in [7]; 10.8 in series [8]; 10.5 in series [14]; 13.1 in [9]; 14.1 in series [10]. For the same compound, the stability constant in series [15] is on record as 12.2; in series [11], 7.7.

In the case of `O=C(O)CN(CC(=O)O)CC(=O)O` [NTA, nitrilotriacetic acid], the stability constant in series [1] is listed as 4.8; in [2], 5.5; in series [3], 9.8; in [4], 11.5; in series [5], 6.4; in series [12], 8.9. In addition, the stability constant is 14.3 in [6]; 15.9 in series [7]; 10.7 in [8]; 5.0 in series [13]; 10.4 in series [14]; 13.0 in series [9]. For the same compound, the stability constant in [10] is 11.4; in series [15] it was 11.5; in [11], 7.5.
